Data published in article PMC7725824, “Fused isoselenazolium salts suppress breast cancer cell growth by dramatic increase in pyruvate-dependent mitochondrial ROS production” (Scientific Reports, 2020).

What was measured:
[1] = system: CL/DOPC (1:3) vesicles (cardiolipin); assay: Isothermal titration calorimetry with CL/DOPC liposomes; format: binding; conditions: 25 °C
Experimental: (§1) The obtained large multilamellar liposomes were sonicated in a bath-type sonicator (Cole Parmer Ultrasonic Cleaner 8891CPX (USA)) at room temperature for 30 min and then extruded (LiposoFast-Basic, Avestin) through a 100 nm polycarbonate filter 21 times. The quality of the resulting small unilamellar vesicles was determined by dynamic light scattering (DLS) (Zetasizer Nano ZSP, Malvern Panalytical Ltd., UK).
(§2) The experiments were carried out using an isothermal titration calorimeter (MicroCal iTC200, Malvern Panalytical Ltd., UK). To carry out the titration, the injection syringe was filled with a solution of compound 6 (100 µM), and the reaction cell was filled with liposome dispersion (200 µM of total lipid). The experiments were performed at 25 and 37 °C with a stirring speed of 750 rpm. […] The data consisted of a series of heat flows as a function of time, which were collected automatically and analyzed by Origin 7 software (OriginLab Corporation, Northampton, USA, www.originlab.com, 2002). The changes in enthalpy (ΔH) due to the interactions between 6 and the liposome dispersions were recorded, and then stoichiometry (N), the association constant (KA), the dissociation constant (KD), entropy (ΔS) and the Gibbs free energy (ΔG) were calculated. The obtained sigmoidal titration curves were evaluated assuming independent saturable binding sites in the outer vesicle interface. […]

[2] = system: DOPC liposomes; assay: Isothermal titration calorimetry with DOPC liposomes; format: binding; conditions: 25 °C, 200 µM total lipid
Experimental: as §1, §2

[3] = Cytotoxicity assay (MTT), HEKa; format: cell-based, human; conditions: human, HEKa cells (primary epidermal keratinocytes), normal cell line, mean ± S.D., 3 experiments
Experimental: (§3) MCF-7 (human breast adenocarcinoma, estrogen-positive) and 4T1 (mouse carcinoma), as breast cancer cell lines, and H9C2 (rat cardiomyoblasts), NIH 3T3 (mouse fibroblasts), HEKa (primary human epidermal keratinocytes), MDCK (Madin-Darby Canine Kidney) cells, and A7r5 (rat vascular smooth muscle cells), as normal cell lines, were obtained from the American Type Culture Collection [ATCC] collection for use in the current study. All cell lines were cultured in Dulbecco's modified Eagle's medium (DMEM) containing 10% fetal bovine serum (FBS) and 4 mM L-glutamine at 37 °C and 5% CO2.
(§4) Cell viability was assessed by the addition of 3-(4,5-dimethylthiazol-2-yl)-2,5-diphenyltetrazolinium bromide (MTT). Briefly, cells were seeded (2–6 × 10^4 cells/ml) in 96-well plates and allowed to attach for 24 h. Solutions of test compounds were prepared and serially diluted to obtain the appropriate concentrations. The cells were treated with the test compounds at different concentrations (0.032–100 µM) and incubated for 48 h at 37 °C and 5% CO2. Then, the culture medium was removed, and medium containing 0.2 mg/ml MTT was added. After 3 h (37 °C, 5% CO2), the MTT-containing medium was removed, and 200 μl of dimethyl sulfoxide (DMSO) was immediately added to each sample. The absorbance was assessed at 540 nm using a Tecan multiplate reader Infinite 1000 (Austria). The half-maximal inhibitory concentration (IC50) of each compound was calculated using Graph Pad Prism 3.0.

[4] = Cytotoxicity assay (MTT), 3T3; format: cell-based, mouse; conditions: mouse, NIH 3T3 cells (fibroblasts), normal cell line, mean ± S.D., 3 experiments
Experimental: as §3, §4

[5] = system: CL/DOPC liposomes (cardiolipin); assay: 1H NMR interaction study with CL-containing liposomes; format: binding; conditions: 0.4 mM 6, 1.2 mM DOPC, 0.4 mM CL, 25 °C
Experimental: (§5) Cardiolipin (CL) liposomes for NMR analysis were prepared by the thin-film method followed by sonication and extrusion. […] The obtained lipid thin film was dried in vacuo overnight. Then, the dry lipid film was rehydrated in D18 HEPES buffer (20 mM, pH 7.4, 10% D2O) and gently vortexed, and the samples were sonicated for 30 min in a bath-type sonicator. The obtained sample of liposomes was extruded 21 times through a 100-nm pore polycarbonate filter (Nucleopore Corp., CA). Similarly, liposomes from DOPC only were prepared.
(§6) To study the interactions of compound 6 with CL and DOPC liposomes, a stock solution of 6 (2 mM) in D18 HEPES buffer (20 mM, pH 7.4, 10% D2O) was added to CL/DOPC or DOPC liposome dispersions to reach 400:1200:400 µM CL/DOPC/6 solution or 1600:400 µM DOPC/6 solution followed by gentle vortexing for 30 s.
(§7) NMR spectra were acquired on a 600‐MHz Bruker Avance NEO spectrometer equipped with a 5 mm QCI-F quadruple resonance pulsed‐field‐gradient cryoprobe. The temperature was calibrated against methanol and set to 25 °C. Chemical shifts were referenced to the water resonance at 4.77 ppm with respect to 4,4-dimethyl-4-silapentane-1-sulfonic acid (DSS). The samples contained […] 6 in 90% H2O and 10% D2O with and without DOPC or CL/DOPC liposomes. The NMR data were processed and analyzed using MestReNova software.

[6] = Cytotoxicity assay (MTT), A7r5; format: cell-based, rat; conditions: rat, A7r5 cells (vascular smooth muscle cells), normal cell line, mean ± S.D., 3 experiments
Experimental: as §3, §4

[7] = system: DOPC liposomes; assay: 1H NMR interaction study with DOPC liposomes; format: binding; conditions: 0.4 mM 6, 1.6 mM DOPC, 25 °C
Experimental: as §5, §6, §7

OC1(c2[se][n+]3ccsc3c2Br)CCCCC1 [Compound 6, 3-bromo-2-(1-hydroxycyclohexyl)[1,2]selenazolo[2,3-b]thiazolium chloride]
ITC isoselenazolium cation–CL interaction [1]: decrease in enthalpy | ITC binding to DOPC liposomes [2]: no signs of binding | IC50 at 48 h [3]: 2840 ± 80 nM | IC50 at 48 h [4]: 7400 ± 800 nM | 1H NMR resonances in the presence of CL-containing liposomes [5]: broadened | IC50 at 48 h [6]: 1970 ± 270 nM | aromatic 1H NMR resonances in the presence of DOPC liposomes [7]: noticeably broadened
